Laboratory results from ChEMBL document CHEMBL3864193 (Bioorg Med Chem, 2016).

Columns and labels:
[1] = Cytotoxicity against human A549 cells after 72 hrs by MTT assay; format: functional, cell-based; details: A549, 72 h
cells [2] = details: Homo sapiens, PC-3, 72 h
Description: Cytotoxicity against human PC3 cells after 72 hrs by MTT assay

cells [3] = details: Homo sapiens, MCF7, 72 h
Description: Cytotoxicity against human MCF7 cells after 72 hrs by MTT assay

[4] = molecular target: Vascular endothelial growth factor receptor 2 (Homo sapiens, UniProt P35968); assay: Inhibition of VEGFR2 (unknown origin) by mobility shift/LanthaScreen assay
Sequence of Vascular endothelial growth factor receptor 2 (P35968 whole entry): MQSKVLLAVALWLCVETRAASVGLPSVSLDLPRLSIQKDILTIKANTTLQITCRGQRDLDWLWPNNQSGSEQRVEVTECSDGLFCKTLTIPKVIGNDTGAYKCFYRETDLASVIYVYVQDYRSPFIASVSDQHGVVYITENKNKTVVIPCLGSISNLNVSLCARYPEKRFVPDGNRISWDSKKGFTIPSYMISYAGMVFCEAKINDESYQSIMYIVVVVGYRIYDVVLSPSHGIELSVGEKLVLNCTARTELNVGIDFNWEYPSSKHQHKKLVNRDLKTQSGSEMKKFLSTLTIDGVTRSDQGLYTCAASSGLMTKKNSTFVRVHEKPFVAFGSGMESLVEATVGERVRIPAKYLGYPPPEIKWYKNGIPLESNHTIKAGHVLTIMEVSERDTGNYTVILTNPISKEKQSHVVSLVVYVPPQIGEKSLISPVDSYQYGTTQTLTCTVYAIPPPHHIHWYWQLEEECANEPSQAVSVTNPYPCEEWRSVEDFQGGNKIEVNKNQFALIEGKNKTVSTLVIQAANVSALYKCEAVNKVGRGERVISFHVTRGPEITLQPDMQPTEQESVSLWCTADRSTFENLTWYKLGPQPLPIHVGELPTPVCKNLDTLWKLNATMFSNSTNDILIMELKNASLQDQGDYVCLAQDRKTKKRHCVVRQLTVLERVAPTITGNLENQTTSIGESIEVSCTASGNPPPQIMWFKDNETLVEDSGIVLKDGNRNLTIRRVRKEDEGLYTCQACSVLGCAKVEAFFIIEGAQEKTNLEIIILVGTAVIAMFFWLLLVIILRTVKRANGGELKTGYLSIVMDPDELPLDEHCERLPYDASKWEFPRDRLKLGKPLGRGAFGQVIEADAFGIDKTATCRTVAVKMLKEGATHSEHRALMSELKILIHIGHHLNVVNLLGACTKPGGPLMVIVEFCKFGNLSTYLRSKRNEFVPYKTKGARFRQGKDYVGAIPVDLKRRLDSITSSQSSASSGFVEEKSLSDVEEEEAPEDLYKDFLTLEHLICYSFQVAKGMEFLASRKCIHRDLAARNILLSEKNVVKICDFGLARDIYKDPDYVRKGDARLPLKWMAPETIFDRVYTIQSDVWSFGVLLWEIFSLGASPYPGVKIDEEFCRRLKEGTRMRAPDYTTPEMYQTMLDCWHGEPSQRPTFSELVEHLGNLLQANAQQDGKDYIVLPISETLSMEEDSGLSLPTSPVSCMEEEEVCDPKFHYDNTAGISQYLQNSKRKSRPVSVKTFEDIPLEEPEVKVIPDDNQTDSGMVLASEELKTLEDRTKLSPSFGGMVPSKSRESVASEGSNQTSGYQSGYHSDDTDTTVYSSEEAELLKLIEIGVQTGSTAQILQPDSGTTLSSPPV

Structure (SMILES)	IC50 [1] [µM]	IC50 (cells [2]) [µM]	IC50 (cells [3]) [µM]	IC50 [4] [µM]
CNC(=O)c1cc(Oc2ccc(NC(=O)c3nccc(-c4ccc(C)cc4)n3)cc2)ccn1	28.4	13.1	44.2	
CNC(=O)c1cc(Oc2ccc(NC(=O)c3cc(-c4ccc(OC)cc4)ncn3)cc2F)ccn1	34.5	56.2	46.2	
CNC(=O)c1cc(Oc2ccc(NC(=O)c3cc(-c4ccc(C)cc4)ncn3)cc2)ccn1	> 100	> 100	34.6	
CNC(=O)c1cc(Oc2ccc(NC(=O)c3nccc(-c4ccc([N+](=O)[O-])cc4)n3)cc2)ccn1	> 100	> 100	> 100	
CNC(=O)c1cc(Oc2ccc(NC(=O)c3cc(-c4ccccc4)ncn3)cc2F)ccn1	23.2	44.3	32.4	
CNC(=O)c1cc(Oc2ccc(NC(=O)c3cc(-c4ccc(Br)cc4)ncn3)cc2)ccn1	> 100	> 100	> 100	
CNC(=O)c1cc(Oc2ccc(NC(=O)c3nccc(-c4ccc(OC)cc4)n3)cc2F)ccn1	16.6	24.3	> 100	
CNC(=O)c1cc(Oc2ccc(NC(=O)c3cc(-c4ccccc4)ncn3)cc2)ccn1	27.1	44.2	18.2	
CNC(=O)c1cc(Oc2ccc(NC(=O)c3cc(-c4ccc(Cl)cc4)ncn3)cc2F)ccn1	> 100	> 100	> 100	
CNC(=O)c1cc(Oc2ccc(NC(=O)c3cc(-c4ccc(Cl)cc4)ncn3)cc2)ccn1	> 100	> 100	> 100	
CNC(=O)c1cc(Oc2ccc(NC(=O)c3cc(-c4ccc(Br)cc4)ncn3)cc2F)ccn1	> 100	> 100	> 100	
CCc1ccc(-c2cc(C(=O)Nc3ccc(Oc4ccnc(C(=O)NC)c4)c(F)c3)ncn2)cc1	3.39	15.6	7.63	1.2
CNC(=O)c1cc(Oc2ccc(NC(=O)c3cc(-c4ccc(C)cc4)ncn3)cc2F)ccn1	13.2	40.2	19.2	
CCc1ccc(-c2cc(C(=O)Nc3ccc(Oc4ccnc(C(=O)NC)c4)cc3)ncn2)cc1	13.3	29.3	6.35	3.6
CNC(=O)c1cc(Oc2ccc(NC(=O)c3cc(-c4ccc(C(F)(F)F)cc4)ncn3)cc2)ccn1	> 100	> 100	> 100	
CNC(=O)c1cc(Oc2ccc(NC(=O)c3nccc(-c4ccccc4)n3)cc2)ccn1	26.2	7.31	39.1	
CNC(=O)c1cc(Oc2ccc(NC(=O)c3cc(-c4ccc(F)cc4)ncn3)cc2)ccn1	> 100	> 100	> 100	
CNC(=O)c1cc(Oc2ccc(NC(=O)c3cc(-c4ccc(F)cc4)ncn3)cc2F)ccn1	> 100	> 100	> 100	
CNC(=O)c1cc(Oc2ccc(NC(=O)c3nccc(-c4ccc(OC)cc4)n3)cc2)ccn1	11.1	14.2	35.2	
CNC(=O)c1cc(Oc2ccc(NC(=O)c3cc(-c4ccc(C(F)(F)F)cc4)ncn3)cc2F)ccn1	> 100	> 100	> 100	
CNC(=O)c1cc(Oc2ccc(NC(=O)c3nccc(-c4ccc(C)cc4)n3)cc2F)ccn1	33.2	28.4	69.2	
CNC(=O)c1cc(Oc2ccc(NC(=O)c3cc(-c4ccc(OC)cc4)ncn3)cc2)ccn1	13.5	38.8	29.2	
CNC(=O)c1cc(Oc2ccc(NC(=O)c3nccc(-c4cccc(Cl)c4)n3)cc2)ccn1	> 100	20.8	> 100	
